# Experimental data from patent US20240000811A1, “INOSITOL HEXAKISPHOSPHATE ANALOGUES FOR TREATMENT OF CALCIFICATION ASSOCIATED KIDNEY DISEASES” (INOSITEC AG, priority 2020, published 2024).
# Columns and labels:
# [1] = In-solution screening: CaP precipitation and aggregation in artificial renal tubular fluid (RTF); conditions: 9 mM phosphate, 8 mM calcium, 4 h, RT
# Protocol: An artificial renal tubular fluid (RTF) with a final composition of 0.05 mM oxalate, 0.005 mM sulphate, 408 mM sodium, 424 mM chloride, 0.26 mM potassium, 4 mM magnesium and 0.2 mM citrate in double distilled water was prepared according to a literature report (Fasano, J. M. et al., Kidney Int. 59, 169-178. DOI: 10.1046/j.1523-1755.2001.00477.x, 2001). The solution was filtered with a 0.45-μm syringe filter. Twenty mM Bis-Tris buffer was added to the reported protocol to ensure pH stability throughout experiments and pH was set to 7.2. The artificial RTF was stored at room temperature for up to four months. Stock solutions of 0.25 M phosphate and 1 M calcium were prepared in double distilled water and were stored separately at −20° C.
# Twenty-x final concentration phosphate, 20× final concentration calcium and 10× final concentration compound dilutions were prepared in RTF. Assay mixture consisting of 80% RTF, 10% compound dilution, 5% phosphate dilution and 5% calcium dilution was prepared in Eppendorf tubes as follows. RTF (320 μL) was mixed with 20 μL phosphate dilution (final concentration of 9 mM), 40 μL compound dilution and 20 μL calcium dilution (final concentration of 8 mM). The assay mixture was vortexed after adding each component and 380 μL of the mixture were immediately added to 8-well glass bottom slides and incubated for 4 hat RT. CaP precipitation was assessed using a Leica DM 6000B microscope (Leica Microsystems, Wetzlar, Germany) in brightfield mode. For quantification 3 wells/condition with 3-4 images/well were imaged with a 40× objective. The total area covered with CaP deposits in percentage of the field of view and the mean size of CaP aggregates were determined.
# In a first step, the influence of selected IP6 analogues (FIG. 3) on CaP precipitation and growth was assessed in vitro using artificial renal tubular fluid (RTF) (Table 1). In a previous study, the inventors investigated CaP protein particle formation in serum. However, an important difference to cardiovascular calcification lies in the extremely low protein content of the renal tubular fluid vs. the high abundance of proteins in blood, which can stabilize amorphous particles. Two cut-offs were chosen for assessing efficacy. First, complete inhibition was defined as a >90% reduction of detected CaP precipitates compared to the control sample without compound.
# [2] = system: RPTEC/TERT 1 human proximal tubule cells; experiment: Imaging assay: CaP adhesion/deposition and cellular changes on RPTEC monolayers treated with 5/7 mM Ca/P; format: cell-based; conditions: 7 mM phosphate, 5 mM calcium, 24 h
# Protocol: RPTEC/TERT 1 human proximal tubule cells (RPTEC) were cultured in T75 tissue culture flasks using ProxUp basal medium mixed with ProxUp supplements at 37° C. and 5% CO2 according to manufacturer's recommendations. Cells were used up to passage 30 and regularly tested for Mycoplasma infections. For experiments, RPTEC were cultured in 24-well plates at a seeding density of 150′000 cells/cm^2. Cell viability assessment and cell counting before seeding was performed using an automated cell counter (BioRad TC 20, Hercules, CA, USA).
# For the comparison of selected IP6 analogues, ProxUp basal medium was prepared with the selected inhibitor and added to each well. Then, CaP precipitation was induced by direct addition of first, phosphate and second, calcium. Final concentrations of 7 mM phosphate and 5 mM calcium were used. Cells were incubated for 24 h at 37° C. and 5% CO2. Spiked medium was removed, and cells were washed twice with PBS before staining.
# For staining, ProxUp basal medium was mixed with calcein (500 nM final concentration), EthD (6 μM final concentration), CellMask stain ([…]) and Hoechst 33342. Staining mixture was added to RPTEC and cells were incubated for 30 min in the dark at 37° C. and 5% CO2. Staining solution was removed, cells were washed with PBS once and ProxUp basal medium was added. Cells were immediately imaged after staining. Images were obtained by epifluorescence microscopy at 37° C., using a Leica CTR6000 microscope. For quantification 3 wells/condition were prepared and 3 images/well were taken. For preliminary adhesion experiments images were taken with a 10× objective, for the imaging assay 20× objective images were taken.
# Multichannel images were saved as individual channel images in 8-bit tiff format. For analysis Hoechst channel images were thresholded using the triangle threshold. Touching nuclei of the binary image were further segmented using the watershed algorithm with the distance transform of the binary image as input and local maxima thereof as seeds.
# For EthD channel images, high level of background noise was observed, potentially as a result of fluorescence of the CellMask stain bleeding through. […] A fixed minimum threshold was set at 60. Watershed segmentation similar to the Hoechst channel was performed to segment touching objects. For the calcein channel images adaptive thresholding by triangle thresholding achieved good detection of CaP deposits, which was validated by visual comparison to brightfield channel images. For compound experiments, an additional upper threshold was set to the minimum threshold of the pos.ctrl images for the respective experiment. Thereby an overly insensitive threshold in images with a high amount of CaP deposition was circumvented. The sum of foreground pixels of the binary image was used to calculate the total area of CaP deposits. The skimage label algorithm was used to label touching foreground regions.
# To segment images to single cells the CellMask channel image was first binarized by adaptive thresholding, using a blocksize of 35, followed by median filtering. Binary erosion was performed to shrink the outlines. A version of watershed algorithm was used to segment the whole image into single cells. To this end, the distance transform of the binary erosion image was used as input image and seeds were set to the local maxima of the Hoechst channel image. While this protocol allowed for an approximation of single cell morphology, further improvements of both analytical and experimental staining procedure would be necessary to achieve more accurate results.
# Additionally, texture features of calcein and CellMask channel images were extracted. Grey level co-occurrence matrices were calculated using one set offset of 5 pixel and an angle of 90°. Here, the use of larger offsets could improve the detection of changes in large-scale features, e.g. CaP clustering sites. […]
Molecule,concentration at which CaP precipitation was promoted [1] [µM],effect on CaP precipitation / crystallization (in words) [1],concentration achieving complete inhibition of CaP adhesion [2] [µM],further results
"O=P(O)(O)O[C@H]1[C@H](OP(=O)(O)O)[C@@H](OP(=O)(O)O)[C@H](OP(=O)(O)O)[C@@H](OP(=O)(O)O)[C@H]1OP(=O)(O)O [IP6, Phytic acid, reference compound]",10,–,–,–
"O=P(O)(O)OC1[C@@H](OP(=O)(O)O)[C@H](OP(=O)(O)O)C(O)[C@H](OP(=O)(O)O)[C@H]1OP(=O)(O)O (stereo partly drawn) [IP5, myo-inositol pentakisphosphate, reference compound]",30,–,–,–
"cyclohexane hexacarboxylic acid [IC6, reference compound]",–,weak inhibitory properties,–,–
"O=S(=O)(O)OC1C(OS(=O)(=O)O)C(OS(=O)(=O)O)C(OS(=O)(=O)O)C(OS(=O)(=O)O)C1OS(=O)(=O)O (stereo not drawn) [IS6, myo-inositol hexasulfate, reference compound]",–,weak inhibitory properties,–,–
COCCOCCO[C@@H]1[C@@H](OP(=O)(O)O)[C@H](OP(=O)(O)O)[C@@H](OP(=O)(O)O)[C@@H](OP(=O)(O)O)[C@H]1OP(=O)(O)O [OEG2-IP5],–,–,50,concentration for complete inhibition of CaP precipitation (>90% reduction of detected CaP precipitates vs control) [1]: 30 µM; concentration for inhibition of CaP aggregation (>50% reduction of mean size of aggregates vs control) [1]: 1 µM
COCCOCCOCCOCCOCCOCCOCCOCCOCCOCCOCCO[C@@H]1[C@@H](OP(=O)(O)O)[C@H](OP(=O)(O)O)[C@@H](OP(=O)(O)O)[C@@H](OP(=O)(O)O)[C@H]1OP(=O)(O)O [OEG11-IP5],–,–,50,aggregation inhibitory concentration (>50% reduction of mean size of aggregates vs control) [1]: 300 nM
